This is an account of results in patent US10259809B2, “Fluorinated imidazo[4,5-C]quinoline derivatives as inhibitors of bromodomain containing proteins” (Trillium Therapeutics Inc., priority 2015, dated 2019).

One series deals with T1, BRD2-1: Domain 1 of BRD2 (Homo sapiens, UniProt P25440).
T1 construct: BRD2-1: Domain 1 of BRD2
Briefly: Bromodomain binding assay (Example 6), BRD2-1. As for the experimental part:
(§1) The binding of the compounds of the application to bromodomains BRD2, BRD3 and BRD4 was assessed using a time resolved fluorescent resonance energy transfer binding assay (Alpha Screen Technology), that measures the binding of an acetylated histone peptide to the bromodomain protein.
(§2) The bromodomain protein, histone peptide and a variable concentration of test compound were incubated together to reach thermodynamic equilibrium.

Another series concerns the target T2, BRD3-1: Domain 1 of BRD3 (Homo sapiens, UniProt Q15059).
T2 construct: BRD3-1: Domain 1 of BRD3
Nature of the series: Bromodomain binding assay (Example 6), BRD3-1. As for the experimental part:
as §1, §2

Series [1] has as its target T3, BRD4-FL: Full length BRD4 (Homo sapiens, UniProt O60885).
T3 construct: BRD4-FL: Full length BRD4
Nature of the series: Bromodomain binding assay (Example 6), BRD4-FL. As for the experimental part:
as §1, §2

A further series deals with T4, BRD2-1 (Homo sapiens, UniProt P25440).
T4 construct: BRD2-1: Domain 1 of BRD2
T4 sequence (P25440 74-180 limits assumed): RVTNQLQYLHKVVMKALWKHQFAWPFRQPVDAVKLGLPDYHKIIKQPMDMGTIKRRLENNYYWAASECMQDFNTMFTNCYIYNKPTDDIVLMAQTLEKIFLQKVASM
Nature of the series: BET Bromodomain AlphaScreen assay (Example 9), BRD2-1. The format is binding. The method, then:
(§3) The reader assay was a binding assay using the AlphaScreen technology fluorescence energy resonance transfer (FRET) assay. The biotinylated peptide binding to the reader domain of His-tagged protein is monitored by the singlet oxygen transfer from the Streptavidin-coated donor beads to the AlphaScreen Ni-chelate acceptor beads.
(§4) Reaction buffer: 50 mM Hepes, pH7.5, 100 mM NaCl, 0.05% CHAPS, 0.1% BSA, and 1% DMSO (Buffer and DMSO concentration may be different for different reader).
(§5) Biotin-peptide; sequences were different for different targets.
(§6) Reaction Procedure: • 1. Deliver 4× BRD in wells of reaction plate except No BRD control wells. Add buffer instead. • 2. Deliver compounds in 100% DMSO into the BRD mixture by Acoustic technology (Echo550; nanoliter range). Spin down and pre-incubation for 30 min. • 3. Deliver 4× Ligand. Spin and shake. • 4. Incubate for 30 min at room temperature with gentle shaking. • 5. Deliver 4× donor beads. Spin and shake. • 6. Deliver 4× acceptor beads. Spin and shake. Then gentle shaking in the dark for 60 min. • 7.

Another series concerns the target T5, BRD3-1 (Homo sapiens, UniProt Q15059).
T5 construct: BRD3-1: Domain 1 of BRD3
Briefly: BET Bromodomain AlphaScreen assay (Example 9), BRD3-1. The format is binding. The method, then: as §3, §4, §5, §6
(In general: In Alpha technology, singlet oxygen from a donor bead excites a nearby acceptor bead.)

A further series deals with T6, BRD4-FL (Homo sapiens, UniProt O60885).
T6 construct: BRD4-FL: Full length BRD4
Nature of the series: BET Bromodomain AlphaScreen assay (Example 9), BRD4-FL. The format is binding. The method, then:
as §3, §4, §5, §6

Series [2] can be described thus: Liver microsome stability, mouse. The format is in vitro ADME, mouse (CD-1. Particulars: male, CD-1, mouse, pooled mouse liver microsomes, 1 μM compound, 0.5 mg/ml microsomes, 37° C., read-out: % recovery Mouse Liver Microsomes (MLM) (30 min). As for the experimental part: (§7) Working stocks were initially diluted to a concentration of 40.0 μM in 0.1 M potassium phosphate buffer before addition to the reaction vials. Pooled mouse (CD-1, male) or human (50 donors) liver microsomes were utilized at a final concentration of 0.5 mg/ml. Duplicate wells were used for each time point (0 and 30 minutes). Reactions were carried out at 37° C. in a shaker, and the final concentration of DMSO was kept constant at 0.01%. The final volume for each reaction was 100 μL, which includes the addition of an NADPH-Regeneration solution (NRS) mix. This NRS mix was comprised of glucose 6-phosphate dehydrogenase (0.4 U/mL), NADP+ (1.3 mM), MgCl2 (3.3 mM), and glucose 6-phosphate (3.3 mM) in assay mixtures. Upon completion of the 30 minute time point, reactions were terminated by the addition of 1.5-volumes (150 μL) of ice-cold, acetonitrile with 0.5% formic acid and internal standard. Samples were then centrifuged at 4,000 rpm for 10 minutes to remove debris and precipitated protein. Approximately 150 μL of supernatant was subsequently transferred to a new 96 well microplate for LC/MS analysis.
(§8) Narrow-window mass extraction LC/MS analysis was performed for all samples using a Waters Xevo quadrupole time-of-flight (QTof) mass spectrometer and an ACQUITY UPLC system, to determine relative peak areas of parent compound.
(In general: Liver microsomes are a subcellular fraction often used to study metabolism.)

The nature of series [3]: Liver microsome stability, human. The series is classed as in vitro ADME. Particulars: pooled human liver microsomes (50 donors), 1 μM compound, 0.5 mg/ml microsomes, 37° C., read-out: % recovery Human Liver Microsomes (HLM) (30 min). As for the experimental part:
as §7, §8

Series [4] concerns MM.1S subcutaneous human multiple myeloma xenograft. Briefly: MM.1S subcutaneous human multiple myeloma xenograft model, efficacy. The format is in vivo, NOD SCID mice. As for the experimental part: • Species & Strain: NOD SCID mice • Age: 7-8 week • Total Number: 50 mice plus 40% spare • Sex: Female • Body Weight: 18 to 22 g Animal Maintenance
Groups and treatments started when the mean tumor volume reached about 100-150 mm^3. Based on the tumor volume, mice were randomly assigned to respective groups using a computer-generated randomization procedure.
Each mouse was inoculated subcutaneously on the right flank with MM.1S tumor cells (5×10^6) in 0.1 ml of RPMI-1640 without serum (mixed matrigel) for tumor development. The treatment started when the mean tumor size reached approximately 100-150 mm^3. Mice were then randomized into groups.
The measurement of tumor size was conducted twice weekly with a caliper and the tumor volume (mm^3) was estimated using the formula: TV=a×b^2/2, where “a” and “b” are long and short diameters of a tumor, respectively. The TVs were used for calculation of the tumor growth inhibition (TGI, an indicator of antitumor effectiveness) value using the formula: TGI=(1−T/C)×100%, where “T” and “C” is the mean relative volumes (% tumor growth) of the tumors in the treated and the control groups, respectively, on a given day after tumor inoculation. The experiment terminated when the mean tumor volume exceeded 2000 mm^3 or severe body weight loss was observed.

By IC50 is commonly meant the concentration that gives 50% inhibition. For orientation: EC50 means the concentration giving half of the maximal effect.

Structures are written as SMILES. Counter-ions that a name gives are not always drawn.

T5 sequence (Q15059 34-140 limits assumed): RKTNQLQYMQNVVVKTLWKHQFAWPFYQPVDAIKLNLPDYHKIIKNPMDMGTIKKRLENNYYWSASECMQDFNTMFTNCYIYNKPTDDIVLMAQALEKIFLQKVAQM
T2 sequence (Q15059 34-140 limits assumed): as above
T1 sequence (P25440 74-180 limits assumed): as the sequence (P25440 74-180 limits assumed) above

As to `COc1cc2c(cc1-c1c(C)noc1C)ncc1nc(C3CCOCC3)n([C@@H](C)COC(F)F)c12` [2(a), 4-[1-[(1S)-2-(difluoromethoxy)-1-methyl-ethyl]-8-methoxy-2-tetrahydropyran-4-yl-imidazo[4,5-c]quinolin-7-yl]-3,5-dimethyl-isoxazole], the IC50 at BRD2-1: Domain 1 of BRD2 came to 63 nM; on BRD3-1: Domain 1 of BRD3 it was 44 nM; in series [1] it was 40 nM. For the same compound, the EC50 at BRD2-1 came out at 63.4 nM; at BRD3-1, 43.8 nM; on BRD4-FL it was 40.4 nM.

For the compound `COc1cc2c(cc1-c1c(C)noc1C)ncc1nc(C3CCOCC3)n([C@H](C)COC(F)F)c12` [2(g), 4-[1-[(1R)-2-(difluoromethoxy)-1-methyl-ethyl]-8-methoxy-2-tetrahydropyran-4-yl-imidazo[4,5-c]quinolin-7-yl]-3,5-dimethyl-isoxazole], the IC50 at BRD2-1: Domain 1 of BRD2 is 24 nM; on BRD3-1: Domain 1 of BRD3, 17 nM; in series [1] it was 14 nM. Moreover, the values for the EC50 at BRD2-1, on BRD3-1 and on BRD4-FL were 6.89 nM, 2.76 nM and 7.17 nM, respectively. Further, the recovery at 30 min, 1 μM came out at 55.5% in series [2] and 43% in series [3]. Also, the tumor volume entry in series [4] (10 mg/kg, 30 mg/kg and 60 mg/kg PO QD × 21, 21 days post administration, dose dependent) was “significantly reduced the tumor volume”. Besides, the “tumor volume compared with carfilzomib (CFZ)” value in series [4] (30 mg/kg and 60 mg/kg PO, 21 days post administration, CFZ 5 mg/kg IV) is reported as “reduced the tumor volume to a greater extent than carfilzomib”. Further, the antitumor activity entry in [4] (low-dose 10 mg/kg PO) was “moderate antitumor activity”.

Turning to `COc1cc2c(cc1-c1c(C)noc1C)ncc1nc(C3CCC(F)(F)CC3)n([C@H](C)COC(F)F)c12` [2(h), 4-[2-(4,4-difluorocyclohexyl)-1-[(1R)-2-(difluoromethoxy)-1-methyl-ethyl]-8-methoxy-imidazo[4,5-c]quinolin-7-yl]-3,5-dimethyl-isoxazole], the results for the IC50 (on BRD2-1: Domain 1 of BRD2; on BRD3-1: Domain 1 of BRD3; in series [1]) were 47 nM, 31 nM and 21 nM, respectively. In addition, the EC50 at BRD2-1 stood at 27.3 nM; at BRD3-1 it was 6.96 nM; at BRD4-FL it was 46.2 nM. Besides, the recovery at 30 min, 1 μM in [2] came to 35.2%; in series [3], 62.3%.

`COc1cc2c(cc1-c1c(C)noc1C)ncc1nc(C3CCCCC3)n([C@H](C)COC(F)F)c12` [2(j), 4-[2-cyclohexyl-1-[(1R)-2-(difluoromethoxy)-1-methyl-ethyl]-8-methoxy-imidazo[4,5-c]quinolin-7-yl]-3,5-dimethyl-isoxazole]: the recovery at 30 min, 1 μM is 7% in series [2] and 1.5% in series [3].

As for `COc1cc2c(cc1-c1c(C)noc1C)ncc1nc(C3CCCC3)n([C@H](C)COC(F)F)c12` [2(k), 4-[2-cyclopentyl-1-[(1R)-2-(difluoromethoxy)-1-methyl-ethyl]-8-methoxy-imidazo[4,5-c]quinolin-7-yl]-3,5-dimethyl-isoxazole], the recovery at 30 min, 1 μM in series [2] turned out to be 0.6%; in series [3], 0.1%.

Regarding `COc1cc2c(cc1-c1c(C)noc1C)ncc1nc(C3CCOCC3)n(CCOC(F)F)c12` [2(n), 4-[1-[2-(difluoromethoxy)ethyl]-8-methoxy-2-tetrahydropyran-4-yl-imidazo[4,5-c]quinolin-7-yl]-3,5-dimethyl-isoxazole], the recovery at 30 min, 1 μM in series [2] came out at 74.8%; in [3], 58.1%.

Regarding `COc1cc2c(cc1-c1c(C)noc1C)ncc1nc(C3CCOCC3)n([C@H]3CC[C@H](OC(F)F)CC3)c12` [2(r)], the EC50 on BRD2-1 was determined as 281 nM; at BRD3-1 it was 104 nM; on BRD4-FL, 406 nM.

On to `COc1cc2c(cc1-c1c(C)noc1C)ncc1nc(CN3CCOCC3)n([C@H](C)COC(F)F)c12` [3(a), 4-[[1-[(1R)-2-(difluoromethoxy)-1-methyl-ethyl]-7-(3,5-dimethylisoxazol-4-yl)-8-methoxy-imidazo[4,5-c]quinolin-2-yl]methyl]morpholine trihydrochloride], for which the IC50 at BRD2-1: Domain 1 of BRD2 was 19 nM; at BRD3-1: Domain 1 of BRD3, 10 nM; in series [1] it was 10 nM. For the same compound, the EC50 on BRD2-1 worked out at 19.3 nM; at BRD3-1, 10 nM; at BRD4-FL, 9.52 nM. Moreover, the values for the recovery at 30 min, 1 μM in series [2] and in series [3] were 3.7% and 1.9%, respectively.

Turning to `COc1cc2c(cc1-c1c(C)noc1C)ncc1nc(CN(C)C)n([C@H](C)COC(F)F)c12` [3(b), 1-[1-[(1R)-2-(difluoromethoxy)-1-methyl-ethyl]-7-(3,5-dimethylisoxazol-4-yl)-8-methoxy-imidazo[4,5-c]quinolin-2-yl]-N,N-dimethyl-methanamine], the IC50 at BRD2-1: Domain 1 of BRD2 came to 32 nM; on BRD3-1: Domain 1 of BRD3 it was 18 nM; in series [1] it was 32 nM. The recovery at 30 min, 1 μM in [2] is 0.5%; in series [3] it was 13.7%.

In the case of `COc1cc2c(cc1-c1c(C)noc1C)ncc1nc(CN(C)C)n([C@H](C)COC(F)F)c12` [3(b).HCl], the EC50 at BRD2-1 came out at 32.3 nM; at BRD3-1, 17.6 nM; on BRD4-FL it was 31.7 nM.

With `COc1cc2c(cc1-c1c(C)noc1C)ncc1nc(CN3CCC(F)(F)CC3)n([C@H](C)COC(F)F)c12` [3(f), 4-[1-[(1R)-2-(difluoromethoxy)-1-methyl-ethyl]-2-[(4,4-difluoro-1-piperidyl)methyl]-8-methoxy-imidazo[4,5-c]quinolin-7-yl]-3,5-dimethyl-isoxazole], the recovery at 30 min, 1 μM came out at 2.6% in [2] and 0.6% in [3].

Take `CNCc1nc2cnc3cc(-c4c(C)noc4C)c(OC)cc3c2n1[C@H](C)COC(F)F` [3(g)]: the recovery at 30 min, 1 μM is 0.1% in series [2] and 58.5% in [3].

As to `COc1cc2c(cc1-c1c(C)noc1C)ncc1nc(CN3CCC(F)(F)C3)n([C@H](C)COC(F)F)c12` [3(i)], the recovery at 30 min, 1 μM came out at 10.4% in series [2] and 7.4% in series [3].

For the compound `COc1cc2c(cc1-c1c(C)noc1C)ncc1nc(CN3CC(F)(F)C3)n([C@H](C)COC(F)F)c12` [3(j)], the values for the recovery at 30 min, 1 μM in [2] and in [3] were 8% and 6.9%, respectively.
